Converted amounts (≈) assume the structure as drawn. The source made the active and inactive calls. The calls are words filed in the database; no cut-off is given here.
Columns and labels:
Staphylococcus aureus = test: Antimicrobial activity against Staphylococcus aureus after 18 to 24 hrs by agar well-diffusion method; type: functional
Escherichia coli = test: Antimicrobial activity against Escherichia coli after 18 to 24 hrs by agar well-diffusion method; type: functional
Candida albicans = test: Antimicrobial activity against Candida albicans after 18 to 24 hrs by agar well-diffusion method; type: functional
[1] = target: T1, Enoyl-[acyl-carrier-protein] reductase [NADH] (Mycobacterium tuberculosis) (UniProt P9WGR1); test: Inhibition of Mycobacterium tuberculosis H37Rv enoyl ACP reductase assessed as reduction in bacterial growth after 5 days by microplate alamar blue assay
T1 sequence (whole entry): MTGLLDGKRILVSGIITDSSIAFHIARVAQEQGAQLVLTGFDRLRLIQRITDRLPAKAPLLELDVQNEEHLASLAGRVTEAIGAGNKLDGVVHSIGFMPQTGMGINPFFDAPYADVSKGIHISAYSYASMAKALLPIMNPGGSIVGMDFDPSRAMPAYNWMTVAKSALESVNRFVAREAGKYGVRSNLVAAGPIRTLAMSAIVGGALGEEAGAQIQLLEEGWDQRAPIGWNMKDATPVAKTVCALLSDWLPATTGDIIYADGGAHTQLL

MCF7 [2] = test: Cytotoxicity against human MCF7 cells assessed as cell lysis at 20 ug/ml after 48 hrs by MTT assay; type: functional, cell-based
MCF7 [3] = test: Anticancer activity against human MCF7 cells after 48 hrs by MTT assay; type: functional, cell-based
MCF7 [4] = test: Cytotoxicity against human MCF7 cells assessed as cell lysis at 10 ug/ml after 48 hrs by MTT assay; type: functional, cell-based
MCF7 [5] = test: Cytotoxicity against human MCF7 cells assessed as cell lysis at 30 ug/ml after 48 hrs by MTT assay; type: functional
MCF7 [6] = test: Cytotoxicity against human MCF7 cells assessed as cell lysis at 40 ug/ml after 48 hrs by MTT assay; type: functional
MCF7 [7] = test: Cytotoxicity against human MCF7 cells assessed as cell lysis at 50 ug/ml after 48 hrs by MTT assay; type: functional
MCF7 [8] = test: Cytotoxicity against human MCF7 cells assessed as cell lysis after 48 hrs by MTT assay; type: functional

Row | SMILES | MIC (Staphylococcus aureus) [µg/mL] | MIC (Escherichia coli) [µg/mL] | MIC (Candida albicans) [µg/mL] | MIC [1] [µg/mL] | Activity (MCF7 [2]) | IC50 (MCF7 [3]) | Activity (MCF7 [4]) | Activity (MCF7 [5]) | Activity (MCF7 [6]) | Activity (MCF7 [7]) | Activity (MCF7 [8]) [%]
1 | O=C(/C=C/c1cnc2ccccc2n1)c1cccc(O)c1 | 10 (≈ 36.2 µM) | 5 (≈ 18.1 µM) | 10 (≈ 36.2 µM) | 3.12 (≈ 11.3 µM) |  |  |  |  |  |  | 
2 | O=C(/C=C/c1cnc2ccccc2n1)c1ccncc1 | 50 (≈ 191 µM) | 25 (≈ 95.7 µM) | 50 (≈ 191 µM) | 6.25 (≈ 23.9 µM) |  |  |  |  |  |  | 
3 | NC(=O)c1cnccn1 |  |  |  | 3.12 (≈ 25.3 µM) |  |  |  |  |  |  | 
4 | O=C(/C=C/c1cnc2ccccc2n1)c1cccc(Br)c1 | 25 (≈ 73.7 µM) | 5 (≈ 14.7 µM) | 25 (≈ 73.7 µM) | 25 (≈ 73.7 µM) |  |  |  |  |  |  | 
5 | O=C(/C=C/c1cnc2ccccc2n1)c1ccc(Br)cc1 | 75 (≈ 221 µM) | 25 (≈ 73.7 µM) | 75 (≈ 221 µM) | 50 (≈ 147 µM) |  |  |  |  |  |  | 
6 | O=C(/C=C/c1cnc2ccccc2n1)c1ccc2ccccc2c1 | 25 (≈ 80.6 µM) | 25 (≈ 80.6 µM) | 25 (≈ 80.6 µM) | 25 (≈ 80.6 µM) |  |  |  |  |  |  | 
7 | CN[C@@H]1[C@H](O[C@H]2[C@H](O[C@H]3[C@H](O)[C@@H](O)[C@H](N=C(N)N)[C@@H](O)[C@@H]3N=C(N)N)O[C@@H](C)[C@]2(O)C=O)O[C@@H](CO)[C@H](O)[C@H]1O |  |  |  | 6.25 (≈ 10.7 µM) |  |  |  |  |  |  | 
8 | O=C(/C=C/c1cnc2ccccc2n1)c1ccc([N+](=O)[O-])cc1 | 50 (≈ 164 µM) | 25 (≈ 81.9 µM) | 50 (≈ 164 µM) | 25 (≈ 81.9 µM) |  |  |  |  |  |  | 
9 | O=C(/C=C/c1cnc2ccccc2n1)c1cccc([N+](=O)[O-])c1 | 50 (≈ 164 µM) | 25 (≈ 81.9 µM) | 25 (≈ 81.9 µM) | 25 (≈ 81.9 µM) |  |  |  |  |  |  | 
10 | O=C(/C=C/c1cnc2ccccc2n1)c1ccc(F)cc1 | 75 (≈ 270 µM) | 25 (≈ 89.8 µM) | 25 (≈ 89.8 µM) | 25 (≈ 89.8 µM) | inactive | 50 µg/mL (≈ 180 µM) | inactive | inactive | inactive | inactive | 
11 | O=C(O)c1cn(C2CC2)c2cc(N3CCNCC3)c(F)cc2c1=O [CIPROFLOXACIN] | 2 (≈ 6.04 µM) |  |  | 3.12 (≈ 9.42 µM) |  |  |  |  |  |  | 
12 | Nc1cccc(C(=O)/C=C/c2cnc3ccccc3n2)c1 | 50 (≈ 182 µM) | 25 (≈ 90.8 µM) | 25 (≈ 90.8 µM) | 25 (≈ 90.8 µM) |  |  |  |  |  |  | 
13 | O=C(/C=C/c1cnc2ccccc2n1)c1ccc(Cl)cc1 | 25 (≈ 84.8 µM) | 10 (≈ 33.9 µM) | 25 (≈ 84.8 µM) | 25 (≈ 84.8 µM) |  |  |  |  |  |  | 
14 | OC(Cn1cncn1)(Cn1cncn1)c1ccc(F)cc1F [FLUCONAZOLE] |  |  | 16 (≈ 52.2 µM) |  |  |  |  |  |  |  | 
15 | O=C(/C=C/c1cnc2ccccc2n1)c1ccc(O)cc1 | 5 (≈ 18.1 µM) | 5 (≈ 18.1 µM) |  | 3.12 (≈ 11.3 µM) | inactive |  | inactive | inactive | inactive | inactive | 
16 | COc1cccc2c1C(=O)c1c(O)c3c(c(O)c1C2=O)C[C@@](O)(C(=O)CO)C[C@@H]3O[C@H]1C[C@H](N)[C@H](O)[C@H](C)O1 [DOXORUBICIN] |  |  |  |  |  | 5 to 7.5 µg |  |  |  |  | 50
17 | O=C(/C=C/c1cnc2ccccc2n1)c1ccccc1 | 50 (≈ 192 µM) | 50 (≈ 192 µM) | 25 (≈ 96 µM) | 25 (≈ 96 µM) |  |  |  |  |  |  | 
18 | COc1ccc(C(=O)/C=C/c2cnc3ccccc3n2)cc1 | 50 (≈ 172 µM) | 25 (≈ 86.1 µM) | 25 (≈ 86.1 µM) | 25 (≈ 86.1 µM) |  |  |  |  |  |  | 
19 | Nc1ccc(C(=O)/C=C/c2cnc3ccccc3n2)cc1 | 50 (≈ 182 µM) | 25 (≈ 90.8 µM) | 25 (≈ 90.8 µM) | 25 (≈ 90.8 µM) | Active | 25 µg/mL (≈ 90.8 µM) | Active | 50% | 50% | 50% | 

— ChEMBL document CHEMBL4038288, “Novel quinoxalinyl chalcone hybrid scaffolds as enoyl ACP reductase inhibitors: Synthesis, molecular docking and biological evaluation” (Bioorg Med Chem Lett, 2017)
